Laboratory results: patent publication US12606585B2, “Fluorinated hexoses” (Stichting Radboud Universiteit, priority 2020, dated 2026)
pEC50: −log10 of the molar value. Like-named read-outs stand apart in the source and are kept apart here.

How the values were obtained:
Format in all cases: cell-based
[1] = system: THP-1 cells; test: Lectin staining for fucose expression inhibition, THP-1 cells; conditions: 3 days, 0-512 μM compound, flow cytometry
Procedure: (§1) THP-1 cells (TIB-202, ATCC) and Jurkat cells (TIB-152, ATCC) were cultured in RPMI-1640 medium containing 2 mM Glutamine and 25 mM HEPES (Gibco™, Life Technologies), supplemented with 10% v/v heat-inactivated fetal bovine serum (FBS) (Gibco™, Life Technologies) and 1× antibiotic-antimycotic solution (100 units/mL of penicillin, 100 μg/mL of streptomycin, and 0.25 μg/mL Fungizone) (Gibco™, Life Technologies) and passaged every 3-4 day by seeding a fraction of 0.5-2 min cells of the culture per 10 ml medium. EL-4 cells (TIB-39, ATCC) were cultured in DMEM medium (Gibco™, Life Technologies), supplemented with 10% v/v heat-inactivated fetal bovine serum (FBS) (Gibco™, Life Technologies), 1× antibiotic-antimycotic solution (100 units/mL of penicillin, 100 μg/mL of streptomycin, and 0.25 μg/mL Fungizone) (Gibco™, Life Technologies) and 2 mM Glutamine (Gibco™, Life Technologies) and passaged every 2-4 days by seeding a fraction of 0.5-1 min cells of the culture per 10 ml medium. For passaging a T75 flask (Corning), medium was removed and the monolayer was washed with 10 ml PBS pH 7.2 without CaCl2) and MgCl2 (Gibco™, Life Technologies) before adding 3.5 ml 0.05% trypsin/EDTA solution (Gibco™ 5 Life Technologies) in PBS. Cells were incubated at rt for 30-45 s after which the trypsin/EDTA-solution was removed. Cells were incubated for an additional 2 min at 37° C., 5.0% CO2 and resuspended in cell culture medium. Cells were then seeded at ˜40.000 cells/cm^2 in new culture flasks. All cells were cultured at 37° C., 5% CO2 in a humidified incubator.
(§2) Protocol below was repeated until n>=3 for each compounds using cells at different passage numbers. Cells were cultured in medium containing different concentrations of unnatural sugar derivatives on either 24-wells plates (adherent cell lines; 80,000 cells per well) (Corning) or 96-wells plates (suspension cell lines; 13,000-20,000 cells per well) (Thermo Scientific). DMSO, at same dilution as the unnatural sugar derivative stock solutions, was used as a positive control for lectin staining; P-Fuc2F was used for all concentrations as negative control. Cells were incubated for three days at 37° C. and 5% CO2 in a humidified incubator. Cells were harvested and washed with 100 μl 1×CF-blocking buffer (Vector Laboratories Inc.) containing 1 mM CaCl2) and 1 mM MgCl2. The cells were then resuspended in 50 μl 0.5 μg/ml of 0.5 ng/ml biotinylated lectin in 1× carbo-free blocking buffer and incubated at 4-8° C. for 45-60 min. Cells were washed with 3×100 μl PBA (PBS containing 1% v/v FBS and 0.1% w/w sodium azide), incubated with 40 μl 1 μg/ml Streptavidin-phycoerythrin conjugate (Invitrogen, eBioscience) in PBA for 10-15 min at 4-8° C. Cells were then washed again with 3×100 μl PBA, resuspended in PBA and fluorescence was measured with a flow cytometer (Beckman & Dickinson FACS-Calibur). Each replicate for each condition with >10,000 gated events. Data was processed using FlowJo (FlowJo LLC). Percentage of lectin binding was obtained by normalizing the MFI values to the MFI values of the respective DMSO control.
(§3) Three cell lines (THP-1, Jurkat, EL4) were cultured for 3 days with 0-512 μM compound. The cells were stained with two fucose specific lectins (AAL & AOL) and analysed by flow cytometry, presented as mean percentage lectin binding normalized to control (n=3).

[2] = system: THP-1 cells; test: Onset and recovery of inhibition; conditions: for effect on lectin binding (FIG. 5): AAL or AOL lectin; for inhibition at 100 µM: Homo sapiens, 72 h, read-out: inhibition of fucosylation after 3 days
Procedure: Cells were cultured in medium containing different concentrations of unnatural sugar derivatives on 96-wells plates (suspension cell lines; 13,000-20,000 cells per well) (Thermo Scientific). DMSO, at same dilution as the unnatural sugar derivative stock solutions, was used as a positive control for lectin staining; P-Fuc2F was used for all concentrations as negative control. Cells were incubated for eight days at 37° C. and 5% CO2 in a humidified incubator. Medium was changed after three and six days of incubation with cell culture medium without unnatural sugar derivatives. Every day cells were harvested and washed with 100 μl 1× CF-blocking buffer (Vector Laboratories Inc.) containing 1 mM CaCl2) and 1 mM MgCl2. The cells were then resuspended in 50 μl 0.5 μg/ml of either 0.5 ng/ml biotinylated AAL, AOL, SNA, MAL-II, WGA, LCA, PSA, PNA, PHA-L or GSL-1 lectin in 1× carbo-free blocking buffer or with 50 μl of non-supplemented 1× carbo-free blocking buffer and incubated at 4-8° C. for 45-60 min. Cells were washed with 3×100 μl PBA (PBS containing 1% v/v FBS and 0.1% w/w sodium azide), incubated with 40 μl 1 μg/ml Streptavidin-phycoerythrin conjugate (Invitrogen, eBioscience) in PBA for 10-15 min at 4-8° C. Cells were then washed again with 3×100 μl PBA, resuspended in PBA and fluorescence was measured with a flow cytometer (Beckman & Dickinson FACS-Calibur). Each replicate for each condition with >10,000 gated events. Data was processed using FlowJo (FlowJo LLC). Percentage of lectin binding was obtained by normalizing the MFI values to the MFI values of the respective DMSO control.
The onset of inhibition and duration for recovery was evaluated on THP-1 cells with 100 and 10 μM compound using the AAL lectin (FIG. 5). At 100 μM concentration compounds 9 and 10 inhibit fucosylation after 1 day and to over 50% after 3 days. Fucosylation was fully recovered to normal 5 levels on day 6. […] Similar results were obtained using the AOL lectin.

[3] = system: EL4 cells; test: Lectin staining for fucose expression inhibition, EL4 cells; conditions: 3 days, 0-512 μM compound, flow cytometry
Procedure: as §1, §2, §3

[4] = system: Jurkat cells; test: Lectin staining for fucose expression inhibition, Jurkat cells; conditions: 3 days, 0-512 μM compound, flow cytometry
Procedure: as §1, §2, §3

[5] = system: THP-1 cells; test: Lectin specificity: total cell surface glycosylation with additional lectins; conditions: 100 μM and 10 μM, three days; for LCA and PSA lectin binding: lectins restricted to α1,6-linked core fucosylation
Procedure: Protocol below was repeated until n>=3 for each compounds using cells at different passage numbers. Culture medium was prepared in 96-wells plates (Thermo Scientific). For every unnatural sugar derivative, 11 wells containing 100 μM of unnatural sugar derivatives and 11 wells containing 10 μM of the unnatural sugar derivatives were prepared. DMSO, at same dilution as the tested probes, was used as a positive control for lectin staining. THP-1 Cells were cultured in the plates (20,000 cells per well) and the cells were incubated for three days at 37° C. and 5% CO2. Cells were harvested and washed with 100 μl 1×CF-blocking buffer (Vector Laboratories Inc.) containing 1 mM CaCl2) and 1 mM MgCl2. The cells were then resuspended in 50 μl 0.5 μg/ml of either 0.5 ng/ml biotinylated AAL, AOL, SNA, MAL-II, WGA, LCA, PSA, PNA, PHA-L or GSL-1 lectin in 1× carbo-free blocking buffer or with 50 μl of non-supplemented 1× carbo-free blocking buffer and incubated at 4-8° C. for 45-60 min. Cells were washed with 3×100 μl PBA (PBS containing 1% v/v FBS and 0.1% w/w sodium azide), incubated with 40 μl 1 μg/ml Streptavidin-phycoerythrin conjugate (Invitrogen, eBioscience) in PBA for 10-15 min at 4-8° C. Cells were then washed again with 3×100 μl PBA, resuspended in PBA and fluorescence was measured with a flow cytometer (Beckman & Dickinson FACS-Calibur). Each replicate for each condition with >10,000 gated events. Data was processed using FlowJo (FlowJo LLC). Percentage of lectin binding was obtained by normalizing the MFI values to the MFI values of the respective DMSO control.
Compounds 9 & 10 are mannose-1-phosphate derivatives, so other glycosylation pathways such as mannosylation could be imagined to be affected. Having established the ability to inhibit cellular fucosylation with AAL and AOL lectins, the effect on total cell surface glycosylation was evaluated using additional lectins (FIG. 4A and FIG. 4B). N-glycans consist of a biantennary mannose containing backbone, recognized by WGA, and can be branched recognized by L-Pha. These branches can be terminated with galactose, recognized by PNA, or α2,6- and α2,3-linked sialic acids recognized by SNA and MAL-II, respectively. […] The decrease in binding for these lectins can thus be attributed to defucosylation as confirmed by a decrease in AAL and AOL binding and no effect on WGA binding.

[6] = Homo sapiens, 72 h, AAL lectin, n=3, read-out: EC50 for fucose expression inhibition, THP-1 AAL
[7] = Homo sapiens, 72 h, AOL lectin, n=3, read-out: EC50 for fucose expression inhibition, THP-1 AOL
[8] = Mus musculus, 72 h, AAL lectin, n=3, read-out: EC50 for fucose expression inhibition, EL4 AAL
[9] = Mus musculus, 72 h, AOL lectin, n=3, read-out: EC50 for fucose expression inhibition, EL4 AOL
[10] = Homo sapiens, 72 h, AAL lectin, n=3, read-out: EC50 for fucose expression inhibition, Jurkat AAL
[11] = Homo sapiens, 72 h, AOL lectin, n=3, read-out: EC50 for fucose expression inhibition, Jurkat AOL

CC(=O)OCC1O[C@H](OP(=O)(OCCSC(C)=O)OCCSC(C)=O)C(OC(C)=O)C(OC(C)=O)[C@@H]1OC(C)=O (stereo partly drawn) [P-D-Man-1P (6), Di-(S-acetyl-2-thioethyl)-(2,3,4,6-tetra-O-acetyl-α-D-mannopyranoside) phosphate]
pEC50 [1, 6]: < 3.30 | pEC50 [1, 7]: < 3.30 | effect on lectin binding (FIG. 5) ([2]; 100 μM): no effect | pEC50 [3, 8]: < 3.30 | pEC50 [3, 9]: < 3.30 | pEC50 [4, 10]: < 3.30 | pEC50 [4, 11]: < 3.30

CC(=O)OC1C(OC(C)=O)[C@H](OC(C)=O)C(C(F)F)O[C@@H]1OP(=O)(OCCSC(C)=O)OCCSC(C)=O (stereo partly drawn) [P-D-Rha6F2-1P (9), Di-(S-acetyl-2-thioethyl)-(2,3,4-tri-O-acetyl-6,6-difluoro-α-D-rhamnopyranoside) phosphate]
effect on binding of WGA, L-Pha, PNA, SNA and MAL-II lectins [5]: No significant effect | LCA and PSA lectin binding [5]: decreased binding | pEC50 [1, 6]: 5.71 | pEC50 [1, 7]: 5.28 | onset of fucosylation inhibition ([2]; 100 μM, AAL lectin): 1 days | inhibition at 100 µM ([2]; 100 μM, AAL lectin): > 50% | pEC50 [3, 8]: 4.85 | pEC50 [3, 9]: 4.42 | pEC50 [4, 10]: 5.23 | pEC50 [4, 11]: 5.39

CC(=O)OC1C(OC(C)=O)[C@H](OC(C)=O)C(C(F)(F)F)O[C@@H]1OP(=O)(OCCSC(C)=O)OCCSC(C)=O (stereo partly drawn) [P-D-Rha6F3-1P (10), Di-(S-acetyl-2-thioethyl)-(2,3,4-tri-O-acetyl-6,6,6-trifluoro-α-D-mannopyranoside) phosphate]
effect on binding of WGA, L-Pha, PNA, SNA and MAL-II lectins [5]: No significant effect | LCA and PSA lectin binding [5]: decreased binding | pEC50 [1, 6]: 6.22 | pEC50 [1, 7]: 6.34 | onset of fucosylation inhibition ([2]; 100 μM, AAL lectin): 1 days | inhibition at 100 µM ([2]; 100 μM, AAL lectin): > 50% | pEC50 [3, 8]: < 3.30 | pEC50 [3, 9]: < 3.30 | pEC50 [4, 10]: 4.56 | pEC50 [4, 11]: 4.89

CC(=O)OC1C(OC(C)=O)[C@H](OC(C)=O)C(CF)O[C@@H]1OP(=O)(OCCSC(C)=O)OCCSC(C)=O (stereo partly drawn) [P-D-Rha6F-1P (8), Di-(S-acetyl-2-thioethyl)-(2,3,4-tri-O-acetyl-6-fluoro-α-D-rhamnopyranoside) phosphate]
pEC50 [1, 6]: 3.57 | pEC50 [1, 7]: 4.07 | pEC50 [3, 8]: < 3.30 | pEC50 [3, 9]: < 3.30 | pEC50 [4, 10]: 3.76 | pEC50 [4, 11]: 3.46

CC(=O)OC1C(OC(C)=O)[C@H](OC(C)=O)C(C)O[C@@H]1OP(=O)(OCCSC(C)=O)OCCSC(C)=O (stereo partly drawn) [P-D-Rha-1P (7), Di-(S-acetyl-2-thioethyl)-(2,3,4-tri-O-acetyl-α-D-rhamnopyranoside) phosphate]
pEC50 [1, 6]: < 3.30 | pEC50 [1, 7]: 3.86 | pEC50 [3, 8]: < 3.30 | pEC50 [3, 9]: < 3.30 | pEC50 [4, 10]: < 3.30 | pEC50 [4, 11]: 3.82

CC(=O)OC1O[C@@H](C)[C@@H](OC(C)=O)[C@@H](OC(C)=O)[C@@H]1F (some centres unmarked) [P-Fuc2Feq, reference compound]
pEC50 ([1]; AAL lectin, n=3, read-out: EC50 for fucose expression inhibition, THP-1 AAL): 4.35 | pEC50 ([1]; AOL lectin, n=3, read-out: EC50 for fucose expression inhibition, THP-1 AOL): 4.51 | inhibition of fucosylation at 10 μM ([2]; 10 μM, AAL lectin): no inhibition | effect on lectin binding (FIG. 5) ([2]; 10 μM): no longer discernible | pEC50 ([3]; AAL lectin, n=3, read-out: EC50 for fucose expression inhibition, EL4 AAL): < 3.30 | pEC50 ([3]; AOL lectin, n=3, read-out: EC50 for fucose expression inhibition, EL4 AOL): < 3.30 | pEC50 ([4]; AAL lectin, n=3, read-out: EC50 for fucose expression inhibition, Jurkat AAL): 3.94 | pEC50 ([4]; AOL lectin, n=3, read-out: EC50 for fucose expression inhibition, Jurkat AOL): 3.92
